Type in all cases: in vitro ADME
The target in experiment [1] is T1, BSEP (Rattus norvegicus, UniProt O70127).
T1 sequence (O70127 1-1321): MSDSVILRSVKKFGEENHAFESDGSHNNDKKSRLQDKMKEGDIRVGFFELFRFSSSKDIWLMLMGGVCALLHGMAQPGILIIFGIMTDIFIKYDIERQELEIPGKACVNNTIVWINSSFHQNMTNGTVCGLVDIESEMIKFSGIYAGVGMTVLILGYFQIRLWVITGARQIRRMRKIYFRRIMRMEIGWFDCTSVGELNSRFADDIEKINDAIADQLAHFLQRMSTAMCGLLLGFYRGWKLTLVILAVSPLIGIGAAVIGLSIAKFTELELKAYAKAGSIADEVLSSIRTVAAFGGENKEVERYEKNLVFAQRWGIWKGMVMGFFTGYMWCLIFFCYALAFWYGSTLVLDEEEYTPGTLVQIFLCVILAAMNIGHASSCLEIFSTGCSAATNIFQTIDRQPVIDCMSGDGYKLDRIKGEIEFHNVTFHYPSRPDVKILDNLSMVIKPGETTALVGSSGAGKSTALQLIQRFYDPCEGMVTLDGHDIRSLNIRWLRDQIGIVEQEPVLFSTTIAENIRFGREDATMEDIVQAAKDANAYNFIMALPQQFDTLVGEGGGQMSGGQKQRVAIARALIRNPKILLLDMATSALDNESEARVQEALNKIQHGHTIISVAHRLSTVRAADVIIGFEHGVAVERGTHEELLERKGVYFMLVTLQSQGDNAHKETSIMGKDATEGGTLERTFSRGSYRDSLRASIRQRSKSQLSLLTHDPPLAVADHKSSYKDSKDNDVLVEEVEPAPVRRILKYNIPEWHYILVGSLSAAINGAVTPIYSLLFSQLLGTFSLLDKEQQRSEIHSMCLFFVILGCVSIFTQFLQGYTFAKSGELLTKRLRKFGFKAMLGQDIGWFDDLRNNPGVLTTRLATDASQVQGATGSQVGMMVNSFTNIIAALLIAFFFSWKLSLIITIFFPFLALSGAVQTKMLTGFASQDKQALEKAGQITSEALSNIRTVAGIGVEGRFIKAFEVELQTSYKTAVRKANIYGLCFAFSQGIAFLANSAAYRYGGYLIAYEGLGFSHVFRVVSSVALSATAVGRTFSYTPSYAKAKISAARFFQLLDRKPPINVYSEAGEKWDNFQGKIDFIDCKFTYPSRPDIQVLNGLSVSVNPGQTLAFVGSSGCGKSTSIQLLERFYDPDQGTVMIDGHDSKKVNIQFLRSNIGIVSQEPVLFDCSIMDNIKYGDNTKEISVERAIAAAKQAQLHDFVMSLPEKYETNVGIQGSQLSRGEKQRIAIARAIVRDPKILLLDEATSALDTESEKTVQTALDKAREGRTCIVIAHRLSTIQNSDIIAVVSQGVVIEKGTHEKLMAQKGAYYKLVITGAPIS
The experiment can be described thus: BSEP inhibition in membrane vesicles (rat).

The target of experiment [2] is T2, BSEP (Canis lupus familiaris, UniProt B8K1W2).
T2 sequence (B8K1W2 1-1325): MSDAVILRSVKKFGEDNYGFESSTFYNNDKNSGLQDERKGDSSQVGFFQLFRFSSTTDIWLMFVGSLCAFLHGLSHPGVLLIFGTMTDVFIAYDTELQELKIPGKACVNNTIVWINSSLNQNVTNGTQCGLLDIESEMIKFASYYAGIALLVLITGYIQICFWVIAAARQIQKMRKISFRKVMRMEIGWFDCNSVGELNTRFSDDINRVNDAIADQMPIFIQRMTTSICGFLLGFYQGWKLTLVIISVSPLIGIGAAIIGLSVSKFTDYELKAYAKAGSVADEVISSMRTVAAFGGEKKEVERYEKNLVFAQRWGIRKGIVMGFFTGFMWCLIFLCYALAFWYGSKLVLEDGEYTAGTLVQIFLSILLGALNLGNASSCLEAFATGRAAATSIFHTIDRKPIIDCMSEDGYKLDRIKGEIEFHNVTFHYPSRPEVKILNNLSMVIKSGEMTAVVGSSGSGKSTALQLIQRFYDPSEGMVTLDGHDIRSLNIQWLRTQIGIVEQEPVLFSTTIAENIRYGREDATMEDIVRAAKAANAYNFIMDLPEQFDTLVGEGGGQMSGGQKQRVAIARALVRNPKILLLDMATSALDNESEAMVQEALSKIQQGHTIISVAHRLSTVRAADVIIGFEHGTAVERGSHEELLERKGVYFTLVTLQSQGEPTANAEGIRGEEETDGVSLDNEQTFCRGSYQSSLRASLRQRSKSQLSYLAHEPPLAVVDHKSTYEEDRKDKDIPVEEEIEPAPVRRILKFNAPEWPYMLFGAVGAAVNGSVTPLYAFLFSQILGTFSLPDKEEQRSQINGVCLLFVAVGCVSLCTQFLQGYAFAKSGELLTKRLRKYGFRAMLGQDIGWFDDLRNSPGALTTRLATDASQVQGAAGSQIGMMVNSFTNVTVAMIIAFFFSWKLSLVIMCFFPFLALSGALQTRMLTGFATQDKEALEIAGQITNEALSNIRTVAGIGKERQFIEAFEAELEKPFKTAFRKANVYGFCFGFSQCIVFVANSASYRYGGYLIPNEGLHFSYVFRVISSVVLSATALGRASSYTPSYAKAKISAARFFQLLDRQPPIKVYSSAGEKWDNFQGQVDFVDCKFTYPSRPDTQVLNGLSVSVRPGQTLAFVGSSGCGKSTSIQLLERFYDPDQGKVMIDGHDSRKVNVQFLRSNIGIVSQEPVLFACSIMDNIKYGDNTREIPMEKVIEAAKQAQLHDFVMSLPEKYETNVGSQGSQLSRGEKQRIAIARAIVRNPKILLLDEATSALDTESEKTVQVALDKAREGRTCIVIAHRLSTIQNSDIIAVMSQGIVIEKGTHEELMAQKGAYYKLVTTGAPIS
The experiment can be described thus: BSEP inhibition in membrane vesicles (dog). As for the experimental part: (§1) Inhibition of BSEP (dog and human) and MRP2 (dog and human) by Compound A and Compound B were tested in membrane vesicles.

Experiment [3] concerns the target BSEP (Homo sapiens, UniProt O95342). The experiment can be described thus: BSEP inhibition in membrane vesicles (human). As for the experimental part: as §1
The target of experiment [4] is MRP2 (Rattus norvegicus, UniProt Q63120). The experiment can be described thus: MRP2 inhibition in membrane vesicles (rat).
In experiment [5] the target is MRP2 (Canis lupus familiaris, UniProt A0A8I3SCV5). The experiment can be described thus: MRP2 inhibition in membrane vesicles (dog). How it is done:
as §1

Experiment [6] addresses MRP2 (Homo sapiens, UniProt Q92887). The experiment can be described thus: MRP2 inhibition in membrane vesicles (human). How it is done:
as §1

The next experiment addresses MRP3 (Homo sapiens, UniProt O15438). As to the kind of experiment: MRP3 inhibition (human).
For a further experiment, the target named is T3, MRP4 (Homo sapiens, UniProt O15439).
T3 sequence (O15439 1-1325): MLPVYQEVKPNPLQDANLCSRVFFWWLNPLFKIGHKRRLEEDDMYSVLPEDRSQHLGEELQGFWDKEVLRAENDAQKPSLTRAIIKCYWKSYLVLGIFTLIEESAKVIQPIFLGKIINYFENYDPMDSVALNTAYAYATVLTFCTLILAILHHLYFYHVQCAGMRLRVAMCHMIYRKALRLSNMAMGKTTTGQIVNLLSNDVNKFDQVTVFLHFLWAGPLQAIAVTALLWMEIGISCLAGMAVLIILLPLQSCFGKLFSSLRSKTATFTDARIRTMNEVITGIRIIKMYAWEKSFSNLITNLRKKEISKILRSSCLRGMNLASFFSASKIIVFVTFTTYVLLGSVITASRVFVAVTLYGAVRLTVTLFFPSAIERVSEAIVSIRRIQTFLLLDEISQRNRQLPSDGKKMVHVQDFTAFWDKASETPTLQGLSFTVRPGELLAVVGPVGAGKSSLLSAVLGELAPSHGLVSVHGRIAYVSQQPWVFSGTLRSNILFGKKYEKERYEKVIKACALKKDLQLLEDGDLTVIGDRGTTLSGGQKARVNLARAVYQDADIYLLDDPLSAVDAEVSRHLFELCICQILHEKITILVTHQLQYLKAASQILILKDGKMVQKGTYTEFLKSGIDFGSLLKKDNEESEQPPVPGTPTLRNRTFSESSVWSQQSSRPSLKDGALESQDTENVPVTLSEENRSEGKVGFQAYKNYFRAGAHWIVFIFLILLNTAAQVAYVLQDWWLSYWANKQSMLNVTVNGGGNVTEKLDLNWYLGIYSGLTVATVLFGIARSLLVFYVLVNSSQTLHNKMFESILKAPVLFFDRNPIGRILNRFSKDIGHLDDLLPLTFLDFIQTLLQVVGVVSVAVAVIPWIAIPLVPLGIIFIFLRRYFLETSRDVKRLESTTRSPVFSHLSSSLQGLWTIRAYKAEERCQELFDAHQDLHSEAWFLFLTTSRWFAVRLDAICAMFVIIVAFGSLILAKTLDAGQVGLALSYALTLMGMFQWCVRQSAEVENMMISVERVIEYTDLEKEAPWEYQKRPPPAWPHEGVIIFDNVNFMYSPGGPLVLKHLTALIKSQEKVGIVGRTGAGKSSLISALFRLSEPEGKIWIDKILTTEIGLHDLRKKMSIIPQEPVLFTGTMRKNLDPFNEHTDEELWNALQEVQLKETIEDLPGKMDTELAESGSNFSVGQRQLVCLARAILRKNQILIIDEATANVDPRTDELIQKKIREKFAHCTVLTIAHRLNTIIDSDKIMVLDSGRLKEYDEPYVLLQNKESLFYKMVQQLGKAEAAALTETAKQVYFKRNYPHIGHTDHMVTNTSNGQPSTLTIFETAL
The experiment can be described thus: MRP4 inhibition (human).

Each structure is given as a SMILES string. Some results are limits rather than exact numbers.

Sequence of BSEP (Homo sapiens, UniProt O95342) (O95342 whole entry): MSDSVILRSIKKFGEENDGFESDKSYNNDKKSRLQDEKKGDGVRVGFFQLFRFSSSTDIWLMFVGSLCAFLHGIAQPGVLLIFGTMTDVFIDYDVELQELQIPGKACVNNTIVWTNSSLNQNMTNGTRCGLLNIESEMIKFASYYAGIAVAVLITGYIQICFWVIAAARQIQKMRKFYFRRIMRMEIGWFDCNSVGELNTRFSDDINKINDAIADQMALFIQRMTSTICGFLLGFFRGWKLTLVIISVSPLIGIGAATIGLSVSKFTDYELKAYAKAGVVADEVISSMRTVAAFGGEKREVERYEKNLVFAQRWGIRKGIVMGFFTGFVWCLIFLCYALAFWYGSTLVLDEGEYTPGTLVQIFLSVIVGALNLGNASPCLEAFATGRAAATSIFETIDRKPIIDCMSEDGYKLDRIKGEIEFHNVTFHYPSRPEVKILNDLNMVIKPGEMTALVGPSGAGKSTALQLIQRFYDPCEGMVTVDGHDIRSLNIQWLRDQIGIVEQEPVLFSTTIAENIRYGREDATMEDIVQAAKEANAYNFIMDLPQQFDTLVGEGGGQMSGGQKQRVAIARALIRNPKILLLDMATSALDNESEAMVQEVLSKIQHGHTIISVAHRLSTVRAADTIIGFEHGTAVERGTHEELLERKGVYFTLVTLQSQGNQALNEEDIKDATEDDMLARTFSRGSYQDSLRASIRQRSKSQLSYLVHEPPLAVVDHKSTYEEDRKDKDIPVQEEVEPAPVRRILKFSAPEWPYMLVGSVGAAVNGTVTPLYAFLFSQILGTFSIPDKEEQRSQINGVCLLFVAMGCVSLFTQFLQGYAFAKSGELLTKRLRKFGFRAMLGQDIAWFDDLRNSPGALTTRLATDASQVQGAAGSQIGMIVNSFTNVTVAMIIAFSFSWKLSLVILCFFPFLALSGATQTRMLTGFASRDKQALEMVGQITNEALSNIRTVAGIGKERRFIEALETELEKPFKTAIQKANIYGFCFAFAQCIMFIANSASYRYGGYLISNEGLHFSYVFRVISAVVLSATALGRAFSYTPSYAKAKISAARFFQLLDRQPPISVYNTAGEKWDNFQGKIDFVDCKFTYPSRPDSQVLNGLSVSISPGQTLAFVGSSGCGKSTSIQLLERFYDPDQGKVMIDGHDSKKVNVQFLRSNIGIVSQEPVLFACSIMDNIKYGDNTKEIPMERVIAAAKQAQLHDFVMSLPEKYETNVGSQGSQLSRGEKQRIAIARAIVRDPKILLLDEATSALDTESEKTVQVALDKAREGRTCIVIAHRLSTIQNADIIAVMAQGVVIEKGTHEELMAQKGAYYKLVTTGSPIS
Sequence of MRP2 (Canis lupus familiaris, UniProt A0A8I3SCV5) (A0A8I3SCV5 1-1544): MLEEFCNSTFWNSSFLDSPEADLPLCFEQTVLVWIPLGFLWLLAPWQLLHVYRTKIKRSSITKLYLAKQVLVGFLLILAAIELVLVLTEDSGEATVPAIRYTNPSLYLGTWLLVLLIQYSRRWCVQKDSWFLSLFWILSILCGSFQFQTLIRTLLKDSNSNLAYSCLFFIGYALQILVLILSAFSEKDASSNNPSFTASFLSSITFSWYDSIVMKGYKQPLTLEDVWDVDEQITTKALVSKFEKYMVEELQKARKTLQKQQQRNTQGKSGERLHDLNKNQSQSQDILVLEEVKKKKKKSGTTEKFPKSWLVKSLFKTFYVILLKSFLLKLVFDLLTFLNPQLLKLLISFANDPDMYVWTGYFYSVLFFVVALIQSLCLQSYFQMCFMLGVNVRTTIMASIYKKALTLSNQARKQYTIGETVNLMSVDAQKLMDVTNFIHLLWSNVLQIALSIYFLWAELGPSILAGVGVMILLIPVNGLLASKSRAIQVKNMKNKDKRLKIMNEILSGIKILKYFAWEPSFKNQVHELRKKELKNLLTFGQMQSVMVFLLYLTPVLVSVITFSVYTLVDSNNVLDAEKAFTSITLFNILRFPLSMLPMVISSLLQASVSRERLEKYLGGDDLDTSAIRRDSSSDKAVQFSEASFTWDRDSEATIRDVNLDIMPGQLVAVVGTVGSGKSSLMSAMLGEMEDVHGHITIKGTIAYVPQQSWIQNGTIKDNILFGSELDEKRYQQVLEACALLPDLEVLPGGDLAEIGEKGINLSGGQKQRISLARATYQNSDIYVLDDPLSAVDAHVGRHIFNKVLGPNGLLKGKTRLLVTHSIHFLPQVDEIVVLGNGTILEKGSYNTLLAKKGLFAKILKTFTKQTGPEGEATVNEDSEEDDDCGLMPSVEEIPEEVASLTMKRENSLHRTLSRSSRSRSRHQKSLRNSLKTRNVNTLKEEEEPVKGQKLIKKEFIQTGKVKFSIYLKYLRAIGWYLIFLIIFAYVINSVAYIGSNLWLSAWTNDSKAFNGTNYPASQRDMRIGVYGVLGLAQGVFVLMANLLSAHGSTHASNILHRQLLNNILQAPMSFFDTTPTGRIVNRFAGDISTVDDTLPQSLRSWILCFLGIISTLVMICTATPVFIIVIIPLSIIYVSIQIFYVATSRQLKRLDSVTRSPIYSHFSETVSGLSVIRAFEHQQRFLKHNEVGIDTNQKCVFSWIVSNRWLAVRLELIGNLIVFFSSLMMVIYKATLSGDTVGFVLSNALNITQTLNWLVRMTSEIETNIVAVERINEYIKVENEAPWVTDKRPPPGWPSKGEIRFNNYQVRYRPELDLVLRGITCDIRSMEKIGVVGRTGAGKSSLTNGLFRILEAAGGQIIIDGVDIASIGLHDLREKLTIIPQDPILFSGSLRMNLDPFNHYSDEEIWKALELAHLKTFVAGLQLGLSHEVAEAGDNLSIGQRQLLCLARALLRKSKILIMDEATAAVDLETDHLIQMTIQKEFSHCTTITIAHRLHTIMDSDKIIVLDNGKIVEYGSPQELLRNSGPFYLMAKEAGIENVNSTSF
Sequence of MRP2 (Homo sapiens, UniProt Q92887) (Q92887 whole entry): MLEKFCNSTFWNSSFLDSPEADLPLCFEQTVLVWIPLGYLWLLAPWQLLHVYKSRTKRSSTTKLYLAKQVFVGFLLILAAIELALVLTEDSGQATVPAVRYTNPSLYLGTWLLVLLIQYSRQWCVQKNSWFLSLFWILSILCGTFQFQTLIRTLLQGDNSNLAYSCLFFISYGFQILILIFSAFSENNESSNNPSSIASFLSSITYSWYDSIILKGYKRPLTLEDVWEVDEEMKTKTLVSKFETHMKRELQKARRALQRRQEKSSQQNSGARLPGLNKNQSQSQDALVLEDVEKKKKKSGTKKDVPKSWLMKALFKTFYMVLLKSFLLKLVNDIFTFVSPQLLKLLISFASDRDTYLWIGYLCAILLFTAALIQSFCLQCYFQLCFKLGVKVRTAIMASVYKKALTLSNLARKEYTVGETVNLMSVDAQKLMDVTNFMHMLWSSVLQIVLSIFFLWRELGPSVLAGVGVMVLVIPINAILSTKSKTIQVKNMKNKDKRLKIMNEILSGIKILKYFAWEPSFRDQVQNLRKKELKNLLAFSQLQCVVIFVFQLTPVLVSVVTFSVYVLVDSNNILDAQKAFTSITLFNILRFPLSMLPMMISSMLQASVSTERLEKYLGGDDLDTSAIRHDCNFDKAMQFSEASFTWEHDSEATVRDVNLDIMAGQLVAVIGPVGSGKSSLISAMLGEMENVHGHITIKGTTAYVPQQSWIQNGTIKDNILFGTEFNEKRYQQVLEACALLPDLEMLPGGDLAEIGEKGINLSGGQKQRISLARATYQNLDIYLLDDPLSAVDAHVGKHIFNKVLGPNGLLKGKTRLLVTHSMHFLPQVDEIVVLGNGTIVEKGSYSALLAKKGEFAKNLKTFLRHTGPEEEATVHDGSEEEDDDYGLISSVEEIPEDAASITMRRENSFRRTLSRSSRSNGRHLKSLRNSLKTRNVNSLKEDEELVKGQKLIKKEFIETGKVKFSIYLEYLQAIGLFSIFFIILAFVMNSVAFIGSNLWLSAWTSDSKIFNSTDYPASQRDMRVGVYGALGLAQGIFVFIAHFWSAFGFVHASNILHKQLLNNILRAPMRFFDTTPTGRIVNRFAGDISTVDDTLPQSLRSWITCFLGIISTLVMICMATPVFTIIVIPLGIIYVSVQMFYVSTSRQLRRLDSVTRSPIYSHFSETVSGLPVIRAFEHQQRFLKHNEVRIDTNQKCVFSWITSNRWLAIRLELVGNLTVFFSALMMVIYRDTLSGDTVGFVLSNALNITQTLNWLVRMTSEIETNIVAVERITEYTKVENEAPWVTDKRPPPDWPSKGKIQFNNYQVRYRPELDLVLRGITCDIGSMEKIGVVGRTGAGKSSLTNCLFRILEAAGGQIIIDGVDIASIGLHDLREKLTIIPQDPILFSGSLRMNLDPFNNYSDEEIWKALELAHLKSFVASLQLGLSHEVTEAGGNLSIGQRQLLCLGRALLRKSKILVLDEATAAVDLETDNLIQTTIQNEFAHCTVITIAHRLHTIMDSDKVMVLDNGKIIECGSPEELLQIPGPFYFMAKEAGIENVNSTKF

Turning to `C[C@H](NC(=O)Cn1nnc2ccccc2c1=O)c1ccc(OC(F)(F)F)cc1` [Compound A, (S)-2-(4-oxobenzo[d][1,2,3]triazin-3(4H)-yl)-N-(1-(4-(trifluoromethoxy)phenyl)ethyl)acetamide], the half-maximal inhibitory concentration (IC50) at BSEP [1] is greater than 200 µM; at BSEP [2], 72.3 µM; at BSEP [3], greater than 200 µM; at MRP2 [4], greater than 200 µM; against MRP2 [5], greater than 200 µM; at MRP2 [6] it was greater than 200 µM. The IC50 against MRP3 and at MRP4 was greater than 200 µM in each case.

For `C[C@H](NC(=O)Cn1nnc2ccc(O[C@@H]3O[C@H](C(=O)O)[C@@H](O)[C@H](O)[C@H]3O)cc2c1=O)c1ccc(OC(F)(F)F)cc1` [Compound B, (2S,3S,4S,5R,6S)-3,4,5-trihydroxy-6-((4-oxo-3-(2-oxo-2-(((S)-1-(4-(trifluoromethoxy)phenyl)ethyl)amino)ethyl)-3,4-dihydrobenzo[d][1,2,3]triazin-6-yl)oxy)tetrahydro-2H-pyran-2-carboxylic acid], the IC50 at BSEP [2] was greater than 200 µM; at BSEP [3], greater than 200 µM; against MRP2 [5], 1.8 µM; against MRP2 [6], 83 µM. The BSEP inhibition result at BSEP [2] (result in words) and at BSEP [3] (result in words) was “not identified” throughout.

(Values after patent publication US12559465B2, “Substituted benzotriazinone metabolites of a GPR139 agonist” (TAKEDA PHARMACEUTICAL COMPANY LIMITED, priority 2020, dated 2026).)
